“And” between values parts separate entries of the source, which are not always exact repeats. Equal entries are not always repeated. Inconclusive results and toxic doses are left out. Rule for the calls: active = survival T/C of 150% or more; inactive = T/C below 125% in these data.
Test system: P388 leukemia ip, CD2F1 mice, survival T/C
Test: NCI In Vivo Anticancer Drug Screen. Data for tumor model P388 Leukemia (intraperitoneal) in CD2F1 (CDF1) mice
Conditions: endpoint: median survival time, higher = longer survival
Method in brief: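 Mice carrying the transplanted tumor received test compound or vehicle. Survival was recorded in each group, and the value is the treated-group measurement divided by that of the vehicle-treated control group.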

[1] = dose: 60.0 mg/kg/injection, schedule: Q01DX005 (ip), vehicle: Klucel (hydroxypropylcellulose) (HPC)
[2] = dose: 120.0 mg/kg/injection, schedule: Q01DX005 (ip), vehicle: Klucel (hydroxypropylcellulose) (HPC)
[3] = dose: 50.0 mg/kg/injection, schedule: Q01DX005 (ip), vehicle: Klucel (hydroxypropylcellulose) (HPC)
[4] = dose: 100.0 mg/kg/injection, schedule: Q01DX005 (ip), vehicle: Klucel (hydroxypropylcellulose) (HPC)
[5] = dose: 200.0 mg/kg/injection, schedule: Q01DX005 (ip), vehicle: Klucel (hydroxypropylcellulose) (HPC)
[6] = dose: 25.0 mg/kg/injection, schedule: Q01DX005 (ip), vehicle: Klucel (hydroxypropylcellulose) (HPC)
[7] = dose: 12.5 mg/kg/injection, schedule: Q01DX009 (ip), vehicle: water
[8] = dose: 25.0 mg/kg/injection, schedule: Q01DX009 (ip), vehicle: water
[9] = dose: 50.0 mg/kg/injection, schedule: Q01DX009 (ip), vehicle: water
[10] = dose: 50.0 mg/kg/injection, schedule: Q01DX005 (ip), vehicle: saline with Tween-80
[11] = dose: 100.0 mg/kg/injection, schedule: Q01DX005 (ip), vehicle: saline with Tween-80
[12] = dose: 50.0 mg/kg/injection, schedule: Q01DX009 (ip), vehicle: saline with Tween-80
[13] = dose: 100.0 mg/kg/injection, schedule: Q01DX009 (ip), vehicle: saline with Tween-80
[14] = dose: 50.0 mg/kg/injection, schedule: Q01DX005 (ip), vehicle: saline
[15] = dose: 100.0 mg/kg/injection, schedule: Q01DX005 (ip), vehicle: saline

Measured: T/C

CCOC(=O)CCC(=O)Oc1cccc2c1C(=O)c1c(O)cccc1C2=O
inactive: [1] 91 % of control | [2] 95 % of control | dose: 240.0 mg/kg/injection, schedule: Q01DX005 (ip), vehicle: Klucel (hydroxypropylcellulose) (HPC) 97 % of control

COc1ccc(O)c(C(C)=O)c1
inactive: [3] 102 % of control | [4] 100 % of control | [5] 98 % of control

Cc1cc(O)c2c(c1O)C(=O)c1cccc(O)c1C2=O
inactive: dose: 0.75 mg/kg/injection, schedule: Q01DX009 (ip), vehicle: Klucel (hydroxypropylcellulose) (HPC) 108 % of control | dose: 1.5 mg/kg/injection, schedule: Q01DX009 (ip), vehicle: Klucel (hydroxypropylcellulose) (HPC) 115 % of control | dose: 3.0 mg/kg/injection, schedule: Q01DX005 (ip), vehicle: Klucel (hydroxypropylcellulose) (HPC) 99 % of control | dose: 3.0 mg/kg/injection, schedule: Q01DX009 (ip), vehicle: Klucel (hydroxypropylcellulose) (HPC) 90 % of control | dose: 6.0 mg/kg/injection, schedule: Q01DX005 (ip), vehicle: Klucel (hydroxypropylcellulose) (HPC) 106 % of control | dose: 6.0 mg/kg/injection, schedule: Q01DX009 (ip), vehicle: Klucel (hydroxypropylcellulose) (HPC) 114 % of control | dose: 12.0 mg/kg/injection, schedule: Q01DX005 (ip), vehicle: Klucel (hydroxypropylcellulose) (HPC) 101 % of control | dose: 12.0 mg/kg/injection, schedule: Q01DX009 (ip), vehicle: Klucel (hydroxypropylcellulose) (HPC) 98 % of control | dose: 12.5 mg/kg/injection, schedule: Q01DX005 (ip), vehicle: Klucel (hydroxypropylcellulose) (HPC) 101 % of control | dose: 24.0 mg/kg/injection, schedule: Q01DX005 (ip), vehicle: Klucel (hydroxypropylcellulose) (HPC) 95 % of control | [6] 97 % of control | [3] 90 % of control | dose: 100.0 mg/kg/injection, schedule: Q01DX001 (ip), vehicle: saline 109 % of control | dose: 200.0 mg/kg/injection, schedule: Q01DX001 (ip), vehicle: saline 108 % of control | dose: 400.0 mg/kg/injection, schedule: Q01DX001 (ip), vehicle: saline 100 % of control

CCN(CC)CCCC(C)NC(C)CCCN(CC)CC (configuration not stated)
inactive: dose: 3.13 mg/kg/injection, schedule: Q01DX009 (ip), vehicle: water 112 % of control | dose: 6.25 mg/kg/injection, schedule: Q01DX009 (ip), vehicle: water 112 % of control | [7] 99 % of control | [8] 108 % of control | [9] 104 % of control

CC(=O)N(C)c1ccc2c(c1)C(=O)c1ccccc1-2
inactive: [10] 102 % of control | [11] 95 % of control | dose: 200.0 mg/kg/injection, schedule: Q01DX005 (ip), vehicle: saline with Tween-80 92 % of control

Cc1cccc(Cl)c1NC(=O)C(C)N1CCCC1 (configuration not stated)
inactive: dose: 12.5 mg/kg/injection, schedule: Q01DX009 (ip), vehicle: saline 100 % of control | dose: 25.0 mg/kg/injection, schedule: Q01DX009 (ip), vehicle: saline 90 % of control | dose: 50.0 mg/kg/injection, schedule: Q01DX009 (ip), vehicle: saline 109 % of control

O=C1CCCCC(=O)CS(=O)(=O)C1
inactive: [12] 110 % of control | [13] 107 % of control | dose: 200.0 mg/kg/injection, schedule: Q01DX009 (ip), vehicle: saline with Tween-80 103 % of control

CCn1nnnc1-c1ccccc1
inactive: dose: 100.0 mg/kg/injection, schedule: Q01DX001 (ip), vehicle: Klucel (hydroxypropylcellulose) (HPC) 91 % of control | dose: 200.0 mg/kg/injection, schedule: Q01DX001 (ip), vehicle: Klucel (hydroxypropylcellulose) (HPC) 88 % of control | dose: 400.0 mg/kg/injection, schedule: Q01DX001 (ip), vehicle: Klucel (hydroxypropylcellulose) (HPC) 91 % of control

CC(=NCCN=C(C)c1cc(C)cc(Br)c1O)c1cc(C)cc(Br)c1O
inactive: [3] 108 % of control | [4] 101 % of control | [5] 117 % of control

CCN(CC)c1ccc2cc(-c3nc4ccccc4[nH]3)c(=O)oc2c1
inactive: dose: 12.5 mg/kg/injection, schedule: Q01DX009 (ip), vehicle: saline with Tween-80 96 % of control | dose: 25.0 mg/kg/injection, schedule: Q01DX009 (ip), vehicle: saline with Tween-80 95 % of control | [12] 88 % of control and 98 % of control | [13] 95 % of control

CC(C)N=Cc1ccccc1O.CC(C)N=Cc1ccccc1O.[Cu]
inactive: dose: 25.0 mg/kg/injection, schedule: Q04DX003 (ip), vehicle: saline with Tween-80 100 % of control | dose: 50.0 mg/kg/injection, schedule: Q04DX003 (ip), vehicle: saline with Tween-80 100 % of control

CC1OC(O[C@H]2CC[C@]3(C=O)[C@H]4CC[C@]5(C)[C@@H](C6=COC(=O)C6)CC[C@]5(O)[C@@H]4CC[C@]3(O)C2)C(O)C(O)C1OC1OC(CO)C(O)C(O)C1O (some centres not stated)
inactive: [6] 101 % of control | [3] 98 % of control

CN1C=C([N+](=O)[O-])C(N2CCOCC2)C1N1CCOCC1 (configuration not stated)
inactive: [1] 96 % of control | [2] 114 % of control

COC1CCC(Sc2cccc[n+]2CC(C)=O)CC1OC (configuration not stated)
inactive: dose: 12.5 mg/kg/injection, schedule: Q01DX005 (ip), vehicle: saline with Tween-80 100 % of control | dose: 25.0 mg/kg/injection, schedule: Q01DX005 (ip), vehicle: saline with Tween-80 99 % of control | [10] 98 % of control and 101 % of control | [11] 102 % of control

CCOC(=O)c1c[nH]c2c(Cl)c(Cl)ccc2c1=O
inactive: dose: 50.0 mg/kg/injection, schedule: Q01DX009 (ip), vehicle: Klucel (hydroxypropylcellulose) (HPC) 102 % of control | dose: 100.0 mg/kg/injection, schedule: Q01DX009 (ip), vehicle: Klucel (hydroxypropylcellulose) (HPC) 95 % of control

COc1ccc(/C=N/N2CN(C(C)C(=O)O)B(N(CCO)CCO)N=C2N)cc1OC (configuration not stated)
inactive: dose: 60.0 mg/kg/injection, schedule: Q01DX005 (ip), vehicle: saline 104 % of control | dose: 120.0 mg/kg/injection, schedule: Q01DX005 (ip), vehicle: saline 107 % of control | dose: 240.0 mg/kg/injection, schedule: Q01DX005 (ip), vehicle: saline 107 % of control

CCCCCC(=O)OCCN1CCN(CCCN2c3ccccc3Sc3ccc(C(F)(F)F)cc32)CC1
inactive: dose: 12.5 mg/kg/injection, schedule: Q01DX009 (ip), vehicle: Klucel (hydroxypropylcellulose) (HPC) 113 % of control | dose: 25.0 mg/kg/injection, schedule: Q01DX009 (ip), vehicle: Klucel (hydroxypropylcellulose) (HPC) 101 % of control

CCN(CC)CCOC1C=C(C)C2CC1C2(C)C (configuration not stated)
inactive: [14] 101 % of control | [15] 101 % of control

N=C(N)N1CCNc2ccc(Cl)cc2C1
inactive: dose: 100.0 mg/kg/injection, schedule: Q04DX002 (ip), vehicle: saline with Tween-80 96 % of control | dose: 200.0 mg/kg/injection, schedule: Q04DX002 (ip), vehicle: saline with Tween-80 91 % of control

COC(=O)C1CC(C)N1C1CCCCC1 (configuration not stated)
inactive: [14] 97 % of control | [15] 97 % of control | dose: 200.0 mg/kg/injection, schedule: Q01DX005 (ip), vehicle: saline 101 % of control

NC1C(=O)OC(C(O)CO)C1O (configuration not stated)
inactive: [7] 100 % of control | [8] 100 % of control | [9] 104 % of control | dose: 100.0 mg/kg/injection, schedule: Q01DX009 (ip), vehicle: water 98 % of control | dose: 200.0 mg/kg/injection, schedule: Q01DX009 (ip), vehicle: water 97 % of control

CCOCC[Si]12OCCN(CCO1)CCO2
inactive: [3] 97 % of control | [4] 101 % of control | [5] 90 % of control

— PubChem BioAssay AID330 (DTP/NCI, 2004)
